Assay [1] addresses T1, Bromodomain-containing protein 4 (Homo sapiens, UniProt O60885). Kind of assay: Inhibition of recombinant human His-tagged BRD4 BD1 using biotin-labelled histone H4 acetylated peptide as substrate by TR-FRET assay.
Assay [2] addresses T1, Bromodomain-containing protein 4. Kind of assay: Inhibition of recombinant human His-tagged BRD4 BD2 using biotin-labelled histone H4 acetylated peptide as substrate by TR-FRET assay.

Experimental findings from ChEMBL document CHEMBL4825775, “Substituted 2,3-Benzodiazepines Derivatives as Bromodomain BRD4 Inhibitors” (ACS Med Chem Lett, 2021) are described below.

As to `CNC(=O)N1N=C(c2ccc(N3CCN(C(=O)COCCOCCOCCOCC(=O)Nc4cccc5c4C(=O)N(C4CCC(=O)NC4=O)C5=O)CC3)cc2)c2cc(OC)c(OC)cc2C[C@@H]1C` (stereo partly drawn), the 50% inhibitory concentration (IC50) in assay [1] came to 18.6 nM; in assay [2], 78.4 nM.

On to `CNC(=O)N1N=C(c2ccc(N3CCN(C(=O)COCCOCCOCC(=O)Nc4cccc5c4C(=O)N(C4CCC(=O)NC4=O)C5=O)CC3)cc2)c2cc(OC)c(OC)cc2C[C@@H]1C` (stereo partly drawn), for which the 50% inhibitory concentration (IC50) in assay [1] was determined as 14.9 nM; in assay [2], 150 nM.

As for `CNC(=O)N1N=C(c2ccc(N3CCN(C(=O)CCOCCOCCOCCNc4ccc5c(c4)C(=O)N(C4CCC(=O)NC4=O)C5=O)CC3)cc2)c2cc(OC)c(OC)cc2C[C@@H]1C` (stereo partly drawn), the half-inhibitory concentration (IC50) was 19.3 nM in assay [1] and 166 nM in assay [2].

Turning to `CNC(=O)N1N=C(c2ccc(C(=O)NCCCCNC(=O)COc3cccc4c3C(=O)N(C3CCC(=O)NC3=O)C4=O)cc2)c2cc(OC)c(OC)cc2C[C@@H]1C` (stereo partly drawn), the figures for the 50% inhibitory concentration (IC50) in assay [1] and in assay [2] were 24.9 nM and 136 nM, respectively.

A word on the IC50: it is the midpoint of a concentration-inhibition curve.
